In patent publication US20230126447A1, “OCULAR DRUG DEPOT FOR COMPLEMENT-MEDIATED DISORDERS” (priority 2020, published 2023):
Like-named read-outs stand apart in the source and are kept apart here.

Test: Ocular tissue distribution and pharmacokinetics, 15 mg/kg BID oral, nonpigmented New Zealand White rabbits (Example 7)
Format: in vivo
Protocol: For Groups 2 through 4, blood (approximately 2 mL) was collected via a jugular vein using a syringe and needle and was transferred into tubes containing K2EDTA at approximately 12 hours after the a.m. dose on Day 15 from the two animals designated for sacrifice at approximately 240 hours after the a.m. dose on Day 15. For Groups 2 through 4, two animals/group/time point were sacrificed via an overdose of sodium pentobarbital prior to dosing on Day 15 and at approximately 1, 6, 24, 96, 168, and 240 hours after the a.m. dose on Day 15. Blood (approximately 2 mL) was collected from all animals at sacrifice into tubes containing K2EDTA via exsanguination (cardiac puncture). Blood was maintained on wet ice, in chilled cryoracks, or at approximately 5° C. prior to centrifugation to obtain plasma. Centrifugation began within 1 hour of collection (Deviation). Plasma was placed into 96-well tubes with barcode labels. Plasma was maintained on dry ice prior to storage at approximately −70° C. At the time of sacrifice, both eyes were enucleated, and the following tissues were collected. Each eye was flash-frozen in liquid nitrogen for 15 to 20 seconds. The enucleated eye was placed on dry ice or stored at approximately −70° C. for at least 2 hours. Within approximately 3 days, the frozen matrices were collected as right and left eyes for each matrix into the specific tube type listed. At the time of frozen collection, the ocular tissues were rinsed with saline and blotted dry (as appropriate), weighed, and placed on dry ice. All ocular tissues were collected as single samples.

[1] = Choroid-RPE (OU), male NZW rabbits, Group 4, Day 15, 15 mg/kg/dose BID oral (30 mg/kg/day)
[2] = ICB (OU), male NZW rabbits, Group 4, Day 15, 15 mg/kg/dose BID oral (30 mg/kg/day)
[3] = NZW rabbits, Day 15, 15 mg/kg BID, 96 hr
[4] = NZW rabbits, Day 15, 15 mg/kg BID, 168 hr
[5] = NZW rabbits, Day 15, 15 mg/kg BID, 240 hr
[6] = New Zealand White, rabbit, choroid-RPE, oral, NZW rabbits, Day 15, 15 mg/kg BID, read-out: Mean Choroid-RPE Concentration
[7] = New Zealand White, rabbit, iris-ciliary body, oral, NZW rabbits, Day 15, 15 mg/kg BID, read-out: Mean Iris-Ciliary Concentration
[8] = New Zealand White, rabbit, plasma, oral, NZW rabbits, Day 15, 15 mg/kg BID, read-out: Mean Plasma Concentration
[9] = New Zealand White, rabbit, retina, oral, NZW rabbits, Day 15, 15 mg/kg BID, read-out: Mean Retina Concentration
[10] = New Zealand White, rabbit, plasma, male NZW rabbits, Group 4, Day 15, 15 mg/kg/dose BID oral (30 mg/kg/day)
[11] = Retina (OU), male NZW rabbits, Group 4, Day 15, 15 mg/kg/dose BID oral (30 mg/kg/day)
[12] = plasma, male NZW rabbits, Group 4, Day 15, 15 mg/kg/dose BID oral (30 mg/kg/day)

`CC(=O)c1nn(CC(=O)N2C[C@H](F)C[C@H]2C(=O)Nc2cccc(Br)n2)c2ccc(-c3cnc(C)nc3)cc12` [Compound 1, (2S,4R)-1-(2-(3-Acetyl-5-(2-methylpyrimidin-5-yl)-1H-indazol-1-yl)acetyl)-N-(6-bromopyridin-2-yl)-4-fluoropyrrolidine-2-carboxamide] showed an AUC0-12 [1] of 1440 ng·h/g, an AUC0-240 [1] of 2370 ng·h/g and an AUC(0-24) [1] of 1830 ng·h/g. For the same compound, the AUC(0-t) [1] was 1830 ng·h/g, the Ctrough [1] was 50.7 ng/g and the “DN AUC0-12” value [1] was 95.9 (h*ng/g)/(mg/kg/dose). For the same compound, the “DN AUC0-24” value [1] was 122 (h*ng/g)/(mg/kg/day), the “DN AUC0-240” value [1] was 158 (h*ng/g)/(mg/kg/day) and the “DN Cmax” value [1] was 19.8 (ng/g)/(mg/kg/day. The AUC0-12 [2] was 356 ng·h/g, the AUC(0-24) [2] was 453 ng·h/g and the AUC(0-t) [2] was 453 ng·h/g. For the same compound, the Ctrough [2] was 14.6 ng/g, the “DN AUC0-12” value [2] was 23.7 (h*ng/g)/(mg/kg/dose) and the “DN AUC0-24” value [2] was 30.2 (h*ng/g)/(mg/kg/day). For the same compound, the “DN Cmax” value [2] was 4.33 (ng/g)/(mg/kg/day), the “Mean Choroid-RPE concentration” value [3] was “BLQ” and the “Mean plasma concentration” value [3] was “BLQ”. The “Mean retina concentration” value [3] was “BLQ”, the “Mean Choroid-RPE concentration” value [4] was “BLQ” and the “Mean plasma concentration” value [4] was “BLQ”. For the same compound, the “Mean retina concentration” value [4] was “BLQ”, the “Mean Choroid-RPE concentration” value [5] was “BLQ” and the “Mean plasma concentration” value [5] was “BLQ”. The “Mean retina concentration” value [5] was “BLQ”, the concentration at 0 h [6] was 40.3 ng/g and the concentration at 1 h [6] was 296 ng/g. The concentration at 6 h [6] was 68.6 ng/g, the concentration at 24 h [6] was 14.9 ng/g and the Tmax (New Zealand White, rabbit, choroid-retinal pigment epithelium (choroid-RPE), Choroid-RPE (OU), male NZW rabbits, Group 4, Day 15, 15 mg/kg/dose BID oral (30 mg/kg/day)) was 1 h. It also gave a Tmax (New Zealand White, rabbit, iris-ciliary body (ICB), ICB (OU), male NZW rabbits, Group 4, Day 15, 15 mg/kg/dose BID oral (30 mg/kg/day)) of 1 h, a Cmax (New Zealand White, rabbit, iris-ciliary body (ICB), ICB (OU), male NZW rabbits, Group 4, Day 15, 15 mg/kg/dose BID oral (30 mg/kg/day), read-out: Cmax) of 64.9 ng/g and a concentration at 1 h [7] of 64.9 ng/g. The concentration at 6 h [7] was 21.2 ng/g, the concentration at 24 h [7] was 1.6 ng/g and the concentration at 0 h [8] was 53.8 ng/mL. The concentration at 1 h [8] was 558 ng/mL, the concentration at 6 h [8] was 179 ng/mL and the concentration at 12 h (New Zealand White, rabbit, plasma, oral, NZW rabbits, Day 15, 15 mg/kg BID, 12 hr) was 82.2 ng/mL. For the same compound, the concentration at 24 h [8] was 11.7 ng/mL, the concentration at 0 h [9] was 36.3 ng/g and the concentration at 1 h [9] was 248 ng/g. For the same compound, the concentration at 6 h [9] was 86.1 ng/g, the concentration at 24 h [9] was 9.18 ng/g and the Tmax (New Zealand White, rabbit, Retina (OU), male NZW rabbits, Group 4, Day 15, 15 mg/kg/dose BID oral (30 mg/kg/day)) was 1 h. It also gave a Tmax [10] of 1 h, a half-life [10] of 4.53 h and an AUC0-12 [11] of 1420 ng·h/g. For the same compound, the AUC0-240 [11] was 2160 ng·h/g, the AUC(0-24) [11] was 1830 ng·h/g and the AUC(0-t) [11] was 1830 ng·h/g. For the same compound, the Ctrough [11] was 60.4 ng/g, the “DN AUC0-12” value [11] was 94.4 (h*ng/g)/(mg/kg/dose) and the “DN AUC0-24” value [11] was 122 (h*ng/g)/(mg/kg/day). For the same compound, the “DN AUC0-240” value [11] was 144 (h*ng/g)/(mg/kg/day), the “DN Cmax” value [11] was 16.5 (ng/g)/(mg/kg/day) and the AUC(0-t) (male, New Zealand White, rabbit, plasma, po, 15 mg/kg, plasma, male NZW rabbits, Group 4, Day 15, 15 mg/kg/dose BID oral (30 mg/kg/day), read-out: AUC0-12) was 2930 ng·h/mL. The AUC(0-t) (male, New Zealand White, rabbit, plasma, po, 15 mg/kg, plasma, male NZW rabbits, Group 4, Day 15, 15 mg/kg/dose BID oral (30 mg/kg/day), read-out: AUC0-240) was 3910 ng·h/mL, the AUC(0-t) (male, New Zealand White, rabbit, plasma, po, 15 mg/kg, plasma, male NZW rabbits, Group 4, Day 15, 15 mg/kg/dose BID oral (30 mg/kg/day), read-out: AUC0-t) was 3490 ng·h/mL and the Cmax [12] was 558 ng/mL. For the same compound, the Ctrough [12] was 82.2 ng/mL, the “DN AUC0-12” value [12] was 195 (h*ng/mL)/(mg/kg/dose) and the “DN AUC0-24” value [12] was 233 (h*ng/mL)/(mg/kg/day). For the same compound, the “DN AUC0-240” value [12] was 261 (h*ng/mL)/(mg/kg/day) and the “DN Cmax” value [12] was 37.2 (ng/mL)/(mg/kg/day).
